Where two headings read alike, the source gives them in different places.
System: Phytophthora infestans
Assay type: in vivo
Details: tomato (Patio) seedling, foliage application
[1] = concentration of present compound 50 ppm
[2] = concentration of present compound 200 ppm

| SMILES | Control value [1] | Control value [2] |
| --- | --- | --- |
| COc1ccc(C(=O)NCC2CCCCC2)cc1F [present compound 7, N-(cyclohexylmethyl)-3-fluoro-4-methoxybenzamide] | ++ (40% or more and less than 60% of the lesion spot area on an untreated plant.) | ++++ (Less than 20% of the lesion spot area on an untreated plant.) |
| COc1c(F)cc(C(=O)NCC2CCCCC2)cc1F [present compound 9, N-(cyclohexylmethyl)-3,5-difluoro-4-methoxybenzamide] | ++++ (Less than 20% of the lesion spot area on an untreated plant.) | ++++ (Less than 20% of the lesion spot area on an untreated plant.) |

Source: patent US20100137445A1, “PLANT DISEASE CONTROL AGENT, AND PLANT DISEASE CONTROL METHOD” (SUMITOMO CHEMICAL COMPANY ,LIMITED, priority 2007, published 2010)
